# According to patent EP4745124A1, “NAPHTHALIMIDE-BASED CORONAVIRUS PAPAIN-LIKE PROTEASE INHIBITOR” (Guangzhou National Laboratory, priority 2023, dated 2025):
# Molecular target: T1, SARS-CoV-2 PL^Pro (Severe acute respiratory syndrome coronavirus 2, UniProt P0DTD1)
# T1 construct: SARS-CoV-2 PL^Pro catalytic domain (746-1060); made in house
# Test: biochemical
# Conditions: SARS-CoV-2 PLPro catalytic domain (746-1060), 10 minutes pre-incubation; read-out: PLpro IC50
row,Compound,IC50 [nM]
1,"Cc1ccc(N2C[C@H]3C[C@@H]2CN3C)cc1C(=O)NC1(c2ccc3c4c(cccc24)C(=O)N3C)CC1 [Compound P40, 2-Methyl-N-(1-(1-methyl-2-oxo-1,2-dihydrobenzo[cd]indol-6-yl)cyclopropyl)-5-((1R,4R)-5-methyl-2,5-diazabicyclo[2. 2.1]heptan-2-yl)benzamide]",< 40
2,"Cc1ccc(N2CCN(CC(C)O)CC2)cc1C(=O)NC1(c2ccc3c4c(cccc24)C(=O)N3C)CC1 (stereo not shown) [Compound P41, 5-(4-(2-hydroxypropyl)piperazin-1-yl)-2-methyl-N-(1-(1-methyl-2-oxo-1,2-dihydrobenzo[cd]indol-6-yl)cyclopropyl)be nzamide]",< 40
3,"Cc1ccc(N2CC(N3CCC(O)C3)C2)cc1C(=O)NC1(c2ccc3c4c(cccc24)C(=O)N3C)CC1 (stereo not shown) [Compound P43, 5-(3-(3-hydroxypyrrolidin-1-yl)azetidin-1-yl)-2-methyl-N-(1-(1-methyl-2-oxo-1,2-dihydrobenzo[cd]indol-6-yl)cyclopropyl)benzamide]",< 40
4,"Cc1ccc(N2CC(N3CCN(C)C(=O)C3)C2)cc1C(=O)NC1(c2ccc3c4c(cccc24)C(=O)N3C)CC1 [Compound P44, 2-Methyl-N-(1-(1-methyl-2-oxo-1,2-dihydrobenzo[cd]indol-6-yl)cyclopropyl)-5-(3-(4-methyl-3-oxopiperazin-1-yl)azetidin-1-yl)benzamide]",100 to 1000
5,"Cc1ccc(N2CC(N3CCCC3)C2)cc1C(=O)NC1(c2ccc3c4c(cccc24)C(=O)N3C)CC1 [Compound P45, 2-methyl-N-(1-(1-methyl-2-oxo-1,2-dihydrobenzo[cd]indol-6-yl)cyclopropyl)-5-(3-(pyrrolidin-1-yl)azetidin-1-yl)benzamide]",< 40
6,"Cc1ccc(N2CCC(N3CCCC3)C(F)(F)C2)cc1C(=O)NC1(c2ccc3c4c(cccc24)C(=O)N3C)CC1 (stereo not shown) [Compound P48, 5-(3,3-difluoro-4-(pyrrolidin-1-yl)piperidin-1-yl)-2-methyl-N-(1-(1-methyl-2-oxo-1,2-dihydrobenzo[cd]indol-6-yl)cyclopropyl)benzamide]",100 to 1000
7,"Cc1ccc(N2CCN(CC(C)(C)O)CC2)cc1C(=O)NC1(c2ccc3c4c(cccc24)C(=O)N3C)CC1 [Compound P49, 5-(4-(2-Hydroxy-2-methylpropyl)piperazin-1-yl)-2-methyl-N-(1-(1-methyl-2-oxo-1,2-dihydrobenzo[cd]indol-6-yl)cyclopropyl)benzamide]",< 40
8,"Cc1ccc(N2CCC(N3CCCCC3)C2)cc1C(=O)NC1(c2ccc3c4c(cccc24)C(=O)N3C)CC1 (stereo not shown) [Compound P50, 2-Methyl-N-(1-(1-methyl-2-oxo-1,2-dihydrobenzo[cd]indol-6-yl)cyclopropyl)-5-(3-(piperidin-1-yl)pyrrolidin-1-yl)benz amide]",< 40
9,"Cc1ccc(N2CCN(CCN(C)C)CC2)cc1C(=O)NC1(c2ccc3c4c(cccc24)C(=O)N3C)CC1 [Compound P52, 5-(4-(2-(Dimethylamino)ethyl)piperazin-1-yl)-2-methyl-N-(1-(1-methyl-2-oxo-1,2-dihydrobenzo[cd]indol-6-yl)cyclopropyl)benzamide]",100 to 1000

# Same assay, conditions: read-out: PLpro IC50
row,Compound,IC50 [nM]
1,"Cc1ccc(N2CC(N3CCC3)C2)cc1C(=O)NC1(c2ccc3c4c(cccc24)C(=O)N3C)CC1 [Compound P42, 5-([1,3'-diazetidin]-1'-yl)-2-methyl-N-(1-(1-methyl-2-oxo-1,2-dihydrobenzo[cd]indol-6-yl)cyclopropyl)benzamide]",< 40
2,"Cc1ccc(N2CC(N3CCOCC3)C2)cc1C(=O)NC1(c2ccc3c4c(cccc24)C(=O)N3C)CC1 [Compound P46, 2-methyl-N-(1-(1-methyl-2-oxo-1,2-dihydrobenzo[cd]indol-6-yl)cyclopropyl)-5-(3-morpholinazetidin-1-yl)benzamide]",100 to 1000
3,Cc1ccc(N2CC3CCN(C)C3C2)cc1C(=O)NC1(c2ccc3c4c(cccc24)C(=O)N3C)CC1 (stereo not shown) [Compound P47],< 40
4,Cc1ccc(N2CCN(CCCS(C)(=O)=O)CC2)cc1C(=O)NC1(c2ccc3c4c(cccc24)C(=O)N3C)CC1 [Compound P51],40 to 100
